Source: ChEMBL document CHEMBL1201862, “PubChem BioAssay data set” (2004)
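In this assay, cells in 96-well plates receive the compound at five concentrations for 48 hours. Endpoints are linearly interpolated between the surrounding concentrations. GI50: concentration for 50% inhibition of growth.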 Activity calls are given as the source filed them. Rule as the data show it: active = GI50 up to about 1.1 µM and inactive = higher.

How the values were obtained:
Experiment in all cases: NCI tumour cell line growth inhibition, 48 h
[1] = test system: 786-0
[2] = test system: A498
[3] = test system: A549
[4] = test system: ACHN
[5] = test system: BT-549
[6] = test system: CAKI-1
[7] = test system: CCRF-CEM
[8] = test system: COLO 205
[9] = test system: DU-145
[10] = test system: EKVX
[11] = test system: HCC 2998
[12] = test system: HCT-116
[13] = test system: HCT-15
[14] = test system: HL-60
[15] = test system: HOP-62
[16] = test system: HOP-92
[17] = test system: HT-29
[18] = test system: Hs-578T
[19] = test system: IGROV-1
[20] = test system: K562
[21] = test system: KM12
[22] = test system: LOX IMVI
[23] = test system: M14
[24] = test system: MCF7
[25] = test system: MDA-MB-231
[26] = test system: MDA-MB-435
[27] = test system: MDA-N
[28] = test system: MOLT-4
[29] = test system: Malme-3M
[30] = test system: NCI-H226
[31] = test system: NCI-H23
[32] = test system: NCI-H460
[33] = test system: NCI-H522
[34] = test system: NCI/ADR-RES
[35] = test system: OVCAR-4
[36] = test system: OVCAR-5
[37] = test system: PC-3
[38] = test system: RPMI-8226
[39] = test system: RXF 393
[40] = test system: SF-268
[41] = test system: SF-295
[42] = test system: SK-MEL-28
[43] = test system: SK-MEL-2
[44] = test system: SK-MEL-5
[45] = test system: SK-OV-3
[46] = test system: SN12C
[47] = test system: SNB-19
[48] = test system: SR
[49] = test system: SW-620
[50] = test system: T47D
[51] = test system: TK-10
[52] = test system: U-251
[53] = test system: UACC-257
[54] = test system: UACC-62
[55] = test system: UO-31
[56] = test system: OVCAR-3
[57] = test system: OVCAR-8
[58] = test system: SNB-75
[59] = test system: SF-539

CCOC(=O)c1cc(C(=O)c2ccccc2)n2nc(-c3ccc(Cl)cc3)ccc12
GI50 [1]: 15.2 µM (inactive)
GI50 [2]: 16.8 µM (inactive)
GI50 [3]: 15.4 µM (inactive)
GI50 [4]: 15 µM (inactive)
GI50 [5]: 18.1 µM (inactive)
GI50 [6]: 31.8 µM (inactive)
GI50 [7]: > 100 µM (inactive)
GI50 [8]: 50.7 µM (inactive)
GI50 [9]: 27.6 µM (inactive)
GI50 [10]: 21.8 µM (inactive)
GI50 [11]: 23.2 µM (inactive)
GI50 [12]: 44.7 µM (inactive)
GI50 [13]: 33.9 µM
GI50 [14]: > 100 µM (inactive)
GI50 [15]: 19.5 µM (inactive)
GI50 [16]: 24.8 µM (inactive)
GI50 [17]: 23.7 µM (inactive)
GI50 [18]: 17.5 µM (inactive)
GI50 [19]: 18.7 µM (inactive)
GI50 [20]: > 100 µM (inactive)
GI50 [21]: 20 µM (inactive)
GI50 [22]: 56.4 µM (inactive)
GI50 [23]: 31.8 µM (inactive)
GI50 [24]: 20.9 µM (inactive)
GI50 [25]: 36.2 µM (inactive)
GI50 [26]: 33.6 µM (inactive)
GI50 [27]: 48.8 µM (inactive)
GI50 [28]: > 100 µM (inactive)
GI50 [29]: 19.5 µM (inactive)
GI50 [30]: 20.4 µM (inactive)
GI50 [31]: 27 µM (inactive)
GI50 [32]: 22.1 µM (inactive)
GI50 [33]: 18.5 µM (inactive)
GI50 [34]: 23.4 µM (inactive)
GI50 [35]: 16.6 µM (inactive)
GI50 [36]: 23.3 µM (inactive)
GI50 [37]: 15.5 µM (inactive)
GI50 [38]: 91.2 µM (inactive)
GI50 [39]: 15.2 µM (inactive)
GI50 [40]: 13.5 µM (inactive)
GI50 [41]: 20.4 µM (inactive)
GI50 [42]: 28.4 µM (inactive)
GI50 [43]: 17.4 µM (inactive)
GI50 [44]: 17.4 µM (inactive)
GI50 [45]: 17 µM (inactive)
GI50 [46]: 25.2 µM (inactive)
GI50 [47]: 16.4 µM (inactive)
GI50 [48]: 72.6 µM (inactive)
GI50 [49]: 93.8 µM (inactive)
GI50 [50]: 21.9 µM (inactive)
GI50 [51]: 19.3 µM (inactive)
GI50 [52]: 23.1 µM (inactive)
GI50 [53]: 30.1 µM (inactive)
GI50 [54]: 17.3 µM (inactive)
GI50 [55]: 14.1 µM (inactive)

O=c1oc2c/c(=C\c3ccc([N+](=O)[O-])cc3)c(=O)c3cccc1c3-2
GI50 [1]: > 100 µM (inactive)
GI50 [3]: > 100 µM (inactive)
GI50 [4]: > 100 µM (inactive)
GI50 [5]: 54.6 µM (inactive)
GI50 [7]: 36.8 µM (inactive)
GI50 [8]: > 100 µM (inactive)
GI50 [9]: > 100 µM (inactive)
GI50 [10]: > 100 µM (inactive)
GI50 [11]: > 100 µM (inactive)
GI50 [12]: > 100 µM (inactive)
GI50 [13]: > 100 µM
GI50 [14]: > 100 µM (inactive)
GI50 [15]: 38.6 µM (inactive)
GI50 [16]: 52 µM (inactive)
GI50 [17]: > 100 µM (inactive)
GI50 [18]: > 100 µM (inactive)
GI50 [19]: > 100 µM (inactive)
GI50 [20]: > 100 µM (inactive)
GI50 [21]: 83.6 µM (inactive)
GI50 [22]: 35.2 µM (inactive)
GI50 [23]: > 100 µM (inactive)
GI50 [24]: > 100 µM (inactive)
GI50 [25]: > 100 µM (inactive)
GI50 [26]: > 100 µM (inactive)
GI50 [27]: > 100 µM (inactive)
GI50 [28]: > 100 µM (inactive)
GI50 [29]: > 100 µM (inactive)
GI50 [31]: > 100 µM (inactive)
GI50 [32]: > 100 µM (inactive)
GI50 [33]: 28.1 µM (inactive)
GI50 [34]: > 100 µM (inactive)
GI50 [56]: 48.5 µM (inactive)
GI50 [36]: > 100 µM (inactive)
GI50 [57]: 30.8 µM (inactive)
GI50 [37]: > 100 µM (inactive)
GI50 [38]: > 100 µM (inactive)
GI50 [40]: 39.8 µM (inactive)
GI50 [41]: > 100 µM (inactive)
GI50 [42]: > 100 µM (inactive)
GI50 [43]: > 100 µM (inactive)
GI50 [44]: > 100 µM (inactive)
GI50 [45]: > 100 µM (inactive)
GI50 [46]: > 100 µM (inactive)
GI50 [47]: > 100 µM (inactive)
GI50 [58]: 22 µM (inactive)
GI50 [48]: > 100 µM (inactive)
GI50 [49]: > 100 µM (inactive)
GI50 [50]: > 100 µM (inactive)
GI50 [51]: 21.9 µM (inactive)
GI50 [52]: 28.6 µM (inactive)
GI50 [53]: > 100 µM (inactive)
GI50 [54]: > 100 µM (inactive)
GI50 [55]: > 100 µM (inactive)

COCOc1c(C(O[Si](C)(C)C(C)(C)C)c2cnc(Sc3ccccc3)n2C)ccc(OC)c1OC (centres undefined)
GI50 [1]: 1.82 µM (inactive)
GI50 [3]: 1.88 µM (inactive)
GI50 [4]: 2.42 µM (inactive)
GI50 [5]: 1.69 µM (inactive)
GI50 [6]: 3.03 µM (inactive)
GI50 [7]: 2.84 µM (inactive)
GI50 [9]: > 100 µM (inactive)
GI50 [10]: 2.53 µM (inactive)
GI50 [11]: 1.84 µM (inactive)
GI50 [12]: 1.6 µM (inactive)
GI50 [13]: 1.94 µM
GI50 [14]: 1.87 µM (inactive)
GI50 [15]: 1.66 µM (inactive)
GI50 [16]: 2.13 µM (inactive)
GI50 [17]: 1.93 µM (inactive)
GI50 [18]: 2.31 µM (inactive)
GI50 [19]: 1.97 µM (inactive)
GI50 [20]: 2.75 µM (inactive)
GI50 [21]: 1.92 µM (inactive)
GI50 [22]: 1.84 µM (inactive)
GI50 [24]: 1.76 µM (inactive)
GI50 [25]: 1.66 µM (inactive)
GI50 [26]: 1.75 µM (inactive)
GI50 [27]: 1.77 µM (inactive)
GI50 [28]: 2.54 µM (inactive)
GI50 [29]: 2.45 µM (inactive)
GI50 [30]: 1.85 µM (inactive)
GI50 [31]: > 100 µM (inactive)
GI50 [32]: 1.53 µM (inactive)
GI50 [33]: 1.62 µM (inactive)
GI50 [34]: 1.35 µM (inactive)
GI50 [56]: 1.7 µM (inactive)
GI50 [35]: 3 µM (inactive)
GI50 [36]: > 100 µM (inactive)
GI50 [57]: 1.43 µM (inactive)
GI50 [37]: 1.55 µM (inactive)
GI50 [38]: 1.85 µM (inactive)
GI50 [39]: 1.36 µM (inactive)
GI50 [40]: 1.64 µM (inactive)
GI50 [41]: 2.65 µM (inactive)
GI50 [59]: 1.97 µM (inactive)
GI50 [42]: 1.84 µM (inactive)
GI50 [43]: 1.31 µM (inactive)
GI50 [44]: 1.82 µM (inactive)
GI50 [45]: 2.05 µM (inactive)
GI50 [46]: 1.78 µM (inactive)
GI50 [47]: 2.14 µM (inactive)
GI50 [58]: 2.2 µM (inactive)
GI50 [48]: 2.47 µM (inactive)
GI50 [49]: 1.93 µM (inactive)
GI50 [50]: 0.256 µM (active)
GI50 [51]: 4.28 µM (inactive)
GI50 [52]: 1.64 µM (inactive)
GI50 [53]: 2.25 µM (inactive)
GI50 [54]: 1.65 µM (inactive)
GI50 [55]: 1.83 µM (inactive)
